The assay concerns the target T1, human P2X7 (Homo sapiens, UniProt Q99572).
T1 construct: 1321N1 cells stably expressing the full length human P2X7 gene (1321N1-hP2X7)
T1 sequence (Q99572 1-595): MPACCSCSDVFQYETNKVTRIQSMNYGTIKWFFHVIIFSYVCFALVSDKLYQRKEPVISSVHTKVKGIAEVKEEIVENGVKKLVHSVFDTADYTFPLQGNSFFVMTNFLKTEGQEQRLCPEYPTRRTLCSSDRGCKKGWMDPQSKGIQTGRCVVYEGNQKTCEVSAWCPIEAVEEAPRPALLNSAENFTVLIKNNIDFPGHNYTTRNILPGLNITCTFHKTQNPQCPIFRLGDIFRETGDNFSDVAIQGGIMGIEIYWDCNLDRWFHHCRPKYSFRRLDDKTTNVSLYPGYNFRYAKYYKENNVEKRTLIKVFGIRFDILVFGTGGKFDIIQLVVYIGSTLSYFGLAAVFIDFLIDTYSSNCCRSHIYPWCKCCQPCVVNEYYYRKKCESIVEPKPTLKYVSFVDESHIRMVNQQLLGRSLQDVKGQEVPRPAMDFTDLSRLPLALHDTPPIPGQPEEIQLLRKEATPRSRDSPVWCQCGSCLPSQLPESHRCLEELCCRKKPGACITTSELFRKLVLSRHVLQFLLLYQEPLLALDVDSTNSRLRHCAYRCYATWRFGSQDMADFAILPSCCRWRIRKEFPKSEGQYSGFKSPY
The experiment in a line: P2X7 modulator pIC50 of Table 1 (assay not given; Intracellular Calcium Flux (FLIPR) Assay assumed). Type of assay: cell-based. On the procedure:
Intracellular Calcium Flux (FLIPR) Assay
Stock solutions of compounds were prepared from powders as a 10 mM DMSO stock solution. These solutions were stored at RT during the two week period of these experiments to prevent freeze-thaw of the DMSO stocks. The DMSO stocks were added to the appropriate assay buffer at a concentration of 10 μM, and then diluted serially to the final concentrations that were tested. No observable precipitate was formed at any time during this process. The aqueous solutions of compounds as well as ATP (Sigma A7699) and BzATP (Sigma B6396) were prepared fresh for each day of experiment.
1321N1 cells stably expressing the full length human P2X7 gene (1321N1-hP2X7) and HEK293 cells stably expressing the full length rat P2X7 gene (HEK293-rP2X7) were obtained from the Roche Cell Culture Facility. 1321N1-hP2X7 cells were grown in Dulbecco's Modified Eagle's Medium (DMEM) high glucose supplemented with 10% FBS and 250 μg/mL G418. HEK293-rP2X7 cells were grown in DMEM/F-12 supplemented with 10% FBS, 1 mM CaCl2, 2 mM MgCl2, 2 mM L-Glutamine and 500 μg/ml G418. Cells were split such that they never became >70% confluent.
On the day prior to the experiment, 1321N1-hP2X7 or HEK293-rP2X7 cells were released into suspension with calcium-free PBS+Versene and washed by centrifugation with calcium-free PBS to remove the Versene. Cells were resuspended in growth medium at a density of 2.5×10^5 cells/mL and seeded into black walled, clear bottom 96 well plates (50,000 cells/well) approximately 18 hr prior to intracellular calcium flux experiments.
On the day of the experiment, plates were washed with FLIPR buffer (calcium- and magnesium-free Hank's Balanced Salt Solution (HBSS) supplemented with 10 mM Hepes, 2.5 mM probenecid and 2 mM calcium chloride) using a BIO-TEK 96 channel plate washer and incubated with […] fluo-3 dye at 37° C. for one hr. The dye was then removed by plate washing and the cells were allowed to equilibrate for 20 min at room temperature with antagonist or vehicle (FLIPR buffer). Agonist (100 μM BzATP final concentration for hP2X7; 5μM BzATP final concentration or rP2X7) was added online with the FLIPR and fluorescence measurements made at 1 sec intervals for 60 sec followed by 3 sec intervals for a further 4 min (5 min total). A final addition of 5 μM ionomycin was made and the maximal BzATP-evoked fluorescence normalized to the maximal ionomycin-evoked fluorescence.
For orientation: Calcium flux is commonly read through the fluorescence of an indicator in the cells.

Molecules are shown by their SMILES.

For `COc1cc(C)c(NC(=O)C2=CNC(=O)NC2c2ccc(F)cc2)cc1OC` (stereo not shown) [Compound 1, 4-(4-Fluoro-phenyl)-2-oxo-1,2,3,4-tetrahydro-pyrimidine-5-carboxylic acid (4,5-dimethoxy-2-methyl-phenyl)-amide], the IC50 (commonly the midpoint of a concentration-inhibition curve) was 0.0347 µM. For `COc1cc(C)c(NC(=O)C2=CN(C)C(=O)NC2c2ccc(F)cc2)cc1OC` (stereo not shown) [Compound 2, 4-(4-Fluoro-phenyl)-1-methyl-2-oxo-1,2,3,4-tetrahydro-pyrimidine-5-carboxylic acid (4,5-dimethoxy-2-methyl-phenyl)-amide] the value was 0.0412 µM. For `Cc1cc(-c2ccc(C)c(NC(=O)C3=CNC(=O)N[C@@H]3c3ccc(F)cc3)c2)n[nH]1` [Compound 3, (R)-4-(4-Fluoro-phenyl)-2-oxo-1,2,3,4-tetrahydro-pyrimidine-5-carboxylic acid [2-methyl-5-(5-methyl-1H-pyrazol-3-yl)-phenyl]-amide] the value was 0.173 µM; for `COc1cc(C)c(NC(=O)C2=CNC(=O)N[C@H]2c2ccc(F)cc2)cc1OC` [Compound 4, (S)-4-(4-Fluoro-phenyl)-2-oxo-1,2,3,4-tetrahydro-pyrimidine-5-carboxylic acid (4,5-dimethoxy-2-methyl-phenyl)-amide], 0.0598 µM. For `Cc1cc(-c2ccc(C)c(NC(=O)C3=CNC(=O)N[C@H]3c3ccc(F)cc3)c2)n[nH]1` [Compound 5, (S)-4-(4-Fluoro-phenyl)-2-oxo-1,2,3,4-tetrahydro-pyrimidine-5-carboxylic acid [2-methyl-5-(5-methyl-1H-pyrazol-3-yl)-phenyl]-amide] the value was 0.0197 µM; for `COc1cc(C)c(NC(=O)C2=CN(C)C(=O)N[C@H]2c2ccc(F)cc2)cc1OC` [Compound 6, (S)-4-(4-Fluoro-phenyl)-1-methyl-2-oxo-1,2,3,4-tetrahydro-pyrimidine-5-carboxylic acid (4,5-dimethoxy-2-methyl-phenyl)-amide], 0.0351 µM; for `Cc1cc(-c2ccc(C)c(NC(=O)C3=CN(C)C(=O)N[C@H]3c3ccc(F)cc3)c2)n[nH]1` [Compound 7, (S)-4-(4-Fluoro-phenyl)-1-methyl-2-oxo-1,2,3,4-tetrahydro-pyrimidine-5-carboxylic acid [2-methyl-5-(5-methyl-1H-pyrazol-3-yl)-phenyl]-amide], 0.0351 µM. `Cc1cc(Cl)c(OCCO)cc1NC(=O)C1=CN(C)C(=O)N[C@H]1c1ccc(F)cc1` [Compound 8, (S)-4-(4-Fluoro-phenyl)-1-methyl-2-oxo-1,2,3,4-tetrahydro-pyrimidine-5-carboxylic acid [4-chloro-5-(2-hydroxy-ethoxy)-2-methyl-phenyl]-amide]: the IC50 was 0.0229 µM. For `COc1cc(C)c(NC(=O)C2=CN(C)C(=O)N(C)C2c2ccc(F)cc2)cc1OC` (stereo not shown) [Compound 9, 4-(4-Fluoro-phenyl)-1,3-dimethyl-2-oxo-1,2,3,4-tetrahydro-pyrimidine-5-carboxylic acid (4,5-dimethoxy-2-methyl-phenyl)-amide] the value was 0.196 µM; for `COc1cc(C)c(NC(=O)C2=CNC(=O)N[C@@H]2c2ccc(F)cc2)cc1OC` [Compound 10, (R)-4-(4-Fluoro-phenyl)-2-oxo-1,2,3,4-tetrahydro-pyrimidine-5-carboxylic acid (4,5-dimethoxy-2-methyl-phenyl)-amide], 0.359 µM; for `Cc1ccc2ncccc2c1NC(=O)C1=CN(C)C(=O)N[C@H]1c1ccc(F)cc1` [Compound 11, (S)-4-(4-Fluoro-phenyl)-1-methyl-2-oxo-1,2,3,4-tetrahydro-pyrimidine-5-carboxylic acid (6-methyl-quinolin-5-yl)-amide], 0.12 µM. For `COc1cc(C)c(NC(=O)C2=CN(CCO)C(=O)NC2c2ccc(F)cc2)cc1OC` (stereo not shown) [Compound 12, 4-(4-Fluoro-phenyl)-1-(2-hydroxy-ethyl)-2-oxo-1,2,3,4-tetrahydro-pyrimidine-5-carboxylic acid (4,5-dimethoxy-2-methyl-phenyl)-amide] the value was 0.111 µM; for `COc1cc(C)c(NC(=O)C2=CNC(=O)N(C)C2c2ccc(F)cc2)cc1OC` (stereo not shown) [Compound 13, 4-(4-Fluoro-phenyl)-3-methyl-2-oxo-1,2,3,4-tetrahydro-pyrimidine-5-carboxylic acid (4,5-dimethoxy-2-methyl-phenyl)-amide], 0.0851 µM.

Regarding `Cc1cc(-c2ccc(C)c(NC(=O)C3=CN(C)C(=O)NC3c3cccc(F)c3)c2)n[nH]1` (stereo not shown) [Compound 14, 4-(3-Fluoro-phenyl)-1-methyl-2-oxo-1,2,3,4-tetrahydro-pyrimidine-5-carboxylic acid [2-methyl-5-(5-methyl-1H-pyrazol-3-yl)-phenyl]-amide], the IC50 is 0.0579 µM. As for `Cc1cnn(-c2ccc(C)c(NC(=O)C3=CN(C)C(=O)N[C@H]3c3ccc(F)cc3)c2)c1` [Compound 15, (S)-4-(4-Fluoro-phenyl)-1-methyl-2-oxo-1,2,3,4-tetrahydro-pyrimidine-5-carboxylic acid [2-methyl-5-(4-methyl-pyrazol-1-yl)-phenyl]-amide], the IC50 is 0.0141 µM. For `Cc1cc(F)c(OCCO)cc1NC(=O)C1=CN(C)C(=O)N[C@H]1c1ccc(F)cc1` [Compound 16, (S)-4-(4-Fluoro-phenyl)-1-methyl-2-oxo-1,2,3,4-tetrahydro-pyrimidine-5-carboxylic acid [4-fluoro-5-(2-hydroxy-ethoxy)-2-methyl-phenyl]-amide] the value was 0.00923 µM; for `CCN1C=C(C(=O)Nc2cc(OCCO)c(Cl)cc2C)[C@H](c2ccc(F)cc2)NC1=O` [Compound 17, (S)-1-Ethyl-4-(4-fluoro-phenyl)-2-oxo-1,2,3,4-tetrahydro-pyrimidine-5-carboxylic acid [4-chloro-5-(2-hydroxy-ethoxy)-2-methyl-phenyl]-amide], 0.024 µM; for `Cc1ccc(-c2nnc(C)n2C)cc1NC(=O)C1=CN(C)C(=O)N[C@H]1c1ccc(F)cc1` [Compound 18, (S)-4-(4-Fluoro-phenyl)-1-methyl-2-oxo-1,2,3,4-tetrahydro-pyrimidine-5-carboxylic acid [5-(4,5-dimethyl-4H-[1,2,4]triazol-3-yl)-2-methyl-phenyl]-amide], 0.0221 µM. For `Cc1ccc(-c2cc(C)n(C[C@@H](O)CO)n2)cc1NC(=O)C1=CN(C)C(=O)N[C@H]1c1ccc(F)cc1` [Compound 19, (S)-4-(4-Fluoro-phenyl)-1-methyl-2-oxo-1,2,3,4-tetrahydropyrimidine-5-carboxylic acid {5-[1-((R)-2,3-dihydroxy-propyl)-5-methyl-1H-pyrazol-3-yl]-2-methyl-phenyl}-amide] the value was 0.0229 µM.

As to `Cc1ccc2c(NC(=O)C3=CN(C)C(=O)N[C@H]3c3ccc(F)cc3)c(C)ccc2n1` [Compound 21, (S)-4-(4-Fluoro-phenyl)-1-methyl-2-oxo-1,2,3,4-tetrahydro-pyrimidine-5-carboxylic acid (2,6-dimethyl-quinolin-5-yl)-amide], the IC50 was 0.0881 µM.

For the molecule `Cc1ccc(-c2ccnn(C)c2=O)cc1NC(=O)C1=CN(C)C(=O)N[C@H]1c1ccc(F)cc1` [Compound 22, (S)-4-(4-Fluoro-phenyl)-1-methyl-2-oxo-1,2,3,4-tetrahydro-pyrimidine-5-carboxylic acid [2-methyl-5-(2-methyl-3-oxo-2,3-dihydro-pyridazin-4-yl)-phenyl]-amide], the IC50 is 0.0115 µM.

As to `Cc1c(NC(=O)C2=CN(C)C(=O)N[C@H]2c2ccc(F)cc2)cccc1-c1ccn[nH]1` [Compound 23, (S)-4-(4-Fluoro-phenyl)-1-methyl-2-oxo-1,2,3,4-tetrahydro-pyrimidine-5-carboxylic acid [2-methyl-3-(2H-pyrazol-3-yl)-phenyl]-amide], the IC50 was 0.184 µM.

These data come from US8435990B2, “Dihydropyrimidone amides as P2X7 modulators” (Roche Palo Alto LLC, priority 2009, dated 2013).
